The values that follow come from article PMC7997382 (2020).

Common to all, as to assay: ESI-MS, negative mode
Assay [1] has as its system 20 mer double strand DNA (dsDNA) (DNA, duplex) GTCCATGCCCCAGGCCCACC/GGTGGGCCTGGGGCATGGAC
Particulars: ammonium acetate 15 mM, 10-fold molar excess of compound, room temperature, 24 h, diluted 1:10, pH 6.8.

In assay [2] the test system is ssDNA2 (DNA, single strand) GGTGGGCCTGGGGCATGGAC
As to conditions: ammonium acetate 15 mM, 10-fold molar excess over dsDNA, 24 h, ssDNA in equilibrium with dsDNA.

Assay [3] concerns ssDNA1 (DNA, single strand) GTCCATGCCCCAGGCCCACC
As to conditions: ammonium acetate 15 mM, 10-fold molar excess over dsDNA, 24 h, ssDNA in equilibrium with dsDNA.

SMILES strings stand for the structures.

In the case of `CC(=O)OC[C@H]1O[C@@H](N2[C]N(C)C=C2)[C@H](OC(C)=O)[C@@H](OC(C)=O)[C@@H]1OC(C)=O.[CH3-].[CH3-].[CH3-].[Pt+4].c1cnc2c(c1)ccc1cccnc12`, the figures for the binding result in assay [1], in assay [2] (partial binding) and in assay [3] (partial binding) were “yes”, “weak” and “weak”, respectively.
In the case of `N.N.[Cl-].[Cl-].[Pt+2]`, the binding entry in assay [1] (covalent, each cisplatin lost both chloride ligands) was “yes”.
On to `C=C.CC(=O)OC[C@H]1O[C@@H](N2[C]N(C)C=C2)[C@H](OC(C)=O)[C@@H](OC(C)=O)[C@@H]1OC(C)=O.Cc1ccc2ccc3ccc(C)nc3c2n1.[CH3-].[Pt+2]`, for which the binding result in assay [1] was “yes”; in assay [2] (no adduct peak), “no”; in assay [3] (no adduct peak), “no”.
